Read-outs that look alike come from different tables or passages of the source. One block for each compound: values may come before it.
Key:
[1] = test system: Giant Foxtail (Setaria faberi); experiment: Preemergence herbicidal activity, soil spray; format: in vivo; conditions: Table 5, visual score after 3 weeks
Excerpt: (§1) Seeds of the desired test plant species were planted in a soil matrix prepared by mixing a loam soil (43 percent silt, 19 percent clay, and 38 percent sand, with a pH of about 8.1 and an organic matter content of about 1.5 percent) and sand in a 70 to 30 ratio. The soil matrix was contained in plastic pots with a surface area of 113 square centimeters. When required to ensure good germination and healthy plants, a fungicide treatment and/or other chemical or physical treatment was applied. A weighed amount, determined by the highest rate to be tested, of each test compound was placed in a 20 mL glass vial and was dissolved in 4 mL of a 97:3 v/v (volume/volume) mixture of acetone and dimethyl sulfoxide to obtain concentrated stock solutions. […] The stock solutions obtained were diluted with a 99.9:0.1 mixture of water and Tween® 155 surfactant to obtain application solutions of known concentration. The solutions containing the highest concentration to be tested were prepared by diluting 2 mL aliquots of the stock solution with 15 mL of the mixture and lower concentrations were prepared by serial dilution of the stock solution. A 2.5 mL aliquot of each solution of known concentration was sprayed evenly onto the soil surface (113 sq. cm) of each seeded pot using a Cornwall 5.0 mL glass syringe fitted with a TeeJet TN-3 hollow cone nozzle to obtain thorough coverage of the soil in each pot. Control pots were sprayed in the same manner with the aqueous mixture. The treated pots and control pots were placed in a greenhouse maintained with an approximate 15 hr photoperiod and temperatures of about 23-29° C. during the day and 22-28° C. during the night. Nutrients and water were added on a regular basis and supplemental lighting was provided with overhead metal halide 1000-Watt lamps as necessary. The water was added by top-irrigation.

[2] = test system: Lambsquarter (Chenopodium album); experiment: Preemergence herbicidal activity, soil spray; format: in vivo; conditions: Table 5, visual score after 3 weeks
Excerpt: as §1

[3] = test system: Crabgrass(large) (Digitaria sanguinalis); experiment: Preemergence herbicidal activity, soil spray; format: in vivo; conditions: Table 5, visual score after 3 weeks
Excerpt: as §1

[4] = test system: Pigweed (redroot) (Amaranthus retroflexus); experiment: Preemergence herbicidal activity, soil spray; format: in vivo; conditions: Table 5, visual score after 3 weeks
Excerpt: as §1

[5] = test system: Lambsquarter (Chenopodium album); experiment: Postemergence herbicidal activity, greenhouse spray; format: in vivo; conditions: visual score after 2 weeks; for pest or weed control at 125 ppm / pest or weed control at 250 ppm / pest or weed control at 500 ppm: Chenopodium album, post-emergence, 336 h, read-out: Post-emergent % control CHEAL; for pest or weed control at 500 ppm: rate 500 ppm
Procedure: (§2) When required to ensure good germination and healthy plants, a fungicide treatment and/or other chemical or physical treatment was applied. The plants were grown for 7-21 days in a greenhouse with an approximate 15 hr photoperiod which was maintained at about 23-29° C. during the day and 22-28° C. during the night. Nutrients and water were added on a regular basis and supplemental lighting was provided with overhead metal halide 1000-Watt lamps as necessary. The plants were employed for testing when they reached the first or second true leaf stage. A weighed amount, determined by the highest rate to be tested, of each test compound was placed in a 20 mL glass vial and was dissolved in 4 mL of a 97:3 v/v (volume/volume) mixture of acetone and dimethyl sulfoxide (DMSO) to obtain concentrated stock solutions. […] The concentrated stock solutions obtained were diluted with an aqueous mixture containing acetone, water, isopropyl alcohol, DMSO, At plus 411 F crop oil concentrate, and Triton X-155 surfactant in a 48.5:39:10:1.5:1.0:0.02 v/v ratio to obtain spray solutions of known concentration. The solutions containing the highest concentration to be tested were prepared by diluting 2 mL aliquots of the stock solution with 13 mL of the mixture and lower concentrations were prepared by serial dilution of the stock solution. Approximately 1.5 mL aliquots of each solution of known concentration were sprayed evenly onto each of the test plant pots using a DeVilbiss atomizer driven by compressed air pressure of 2 to 4 psi (140 to 280 kiloPascals) to obtain thorough coverage of each plant. Control plants were sprayed in the same manner with the aqueous mixture. […] The treated plants and control plants were placed in a greenhouse as described above and watered by sub-irrigation to prevent wash-off of the test compounds.

[6] = test system: Cocklebur (Xanthium strumarium); experiment: as above; format: in vivo; conditions: visual score after 2 weeks; for pest or weed control at 125 ppm / pest or weed control at 250 ppm / pest or weed control at 500 ppm: Xanthium strumarium, post-emergence, 336 h, read-out: Post-emergent % control XANST; for pest or weed control at 500 ppm: rate 500 ppm, 0 no injury, 100 complete kill
Procedure: as §2

[7] = test system: Barnyardgrass (Echinochloa crus-galli); experiment: as above; format: in vivo; conditions: visual score after 2 weeks; for pest or weed control at 125 ppm / pest or weed control at 250 ppm / pest or weed control at 500 ppm: Echinochloa crus-galli, post-emergence, 336 h, read-out: Post-emergent % control ECHCG; for pest or weed control at 500 ppm: rate 500 ppm
Procedure: as §2

[8] = test system: Yellow nutsedge (Cyperus esculentus); experiment: as above; format: in vivo; conditions: visual score after 2 weeks
Procedure: as §2

[9] = Setaria faberi, pre-emergence, 504 h, rate 560 ppm, read-out: Pre-emergent % control SETFA
[10] = Chenopodium album, pre-emergence, 504 h, rate 560 ppm, 100 complete kill or no germination, read-out: Pre-emergent % control CHEAL
[11] = Digitaria sanguinalis, pre-emergence, 504 h, rate 560 ppm, read-out: Pre-emergent % control DIGSA
[12] = Amaranthus retroflexus, pre-emergence, 504 h, rate 560 ppm, read-out: Pre-emergent % control AMARE
[13] = Cyperus, post-emergence, 336 h, Table 1, rate 250 ppm, read-out: Post-emergent % control CYPES
[14] = rate 560 ppm, 100 complete kill or no germination

Structure (SMILES): Nc1cc(-c2ccc(C(F)(F)F)cc2Cl)nc(C(=O)O)c1Cl [Compound 184, 4-Amino-3-chloro-6-(2-chloro-4-(trifluoromethyl)phenyl)pyridine-2-carboxylic acid]
pest or weed control at 140 ppm ([1]; Setaria faberi, pre-emergence, 504 h, rate 140 ppm, read-out: Pre-emergent % control SETFA): 70%
pest or weed control at 140 ppm ([2]; Chenopodium album, pre-emergence, 504 h, rate 140 ppm, read-out: Pre-emergent % control CHEAL): 90%
pest or weed control at 140 ppm ([3]; Digitaria sanguinalis, pre-emergence, 504 h, rate 140 ppm, read-out: Pre-emergent % control DIGSA): 90%
pest or weed control at 140 ppm ([4]; Amaranthus retroflexus, pre-emergence, 504 h, rate 140 ppm, read-out: Pre-emergent % control AMARE): 85%
pest or weed control at 125 ppm ([5]; Table 1, rate 125 ppm): 70%
pest or weed control at 125 ppm ([6]; Table 1, rate 125 ppm): 100%
pest or weed control at 125 ppm ([7]; Table 1, rate 125 ppm): 70%
pest or weed control at 125 ppm ([8]; Cyperus, post-emergence, 336 h, Table 1, rate 125 ppm, read-out: Post-emergent % control CYPES): 40%

melting point: 122 °C
Structure (SMILES): COC(=O)c1nc(-c2ccc(Cl)cc2Cl)c(F)c(N)c1Cl [Compound 88, Methyl 4-amino-3-chloro-5-fluoro-6-(2,4-dichlorophenyl)pyridine-2-carboxylate]
pest or weed control at 560 ppm [1, 9]: 70%
pest or weed control at 560 ppm [2, 10]: 100%
pest or weed control at 560 ppm [3, 11]: 70%
pest or weed control at 560 ppm [4, 12]: 100%
pest or weed control at 250 ppm ([5]; Table 1, rate 250 ppm): 100%
pest or weed control at 125 ppm ([5]; Table 2, rate 125 ppm): 100%
pest or weed control at 250 ppm ([6]; Table 1, rate 250 ppm): 100%
pest or weed control at 125 ppm ([6]; Table 2, rate 125 ppm): 100%
pest or weed control at 250 ppm ([7]; Table 1, rate 250 ppm): 85%
pest or weed control at 125 ppm ([7]; Table 2, rate 125 ppm): 85%
pest or weed control at 250 ppm [8, 13]: 95%
pest or weed control at 125 ppm ([8]; Cyperus, post-emergence, 336 h, Table 2, rate 125 ppm, read-out: Post-emergent % control CYPES): 95%

melting point: 130 to 131 °C
Structure (SMILES): COC(=O)c1nc(-c2ccc(Cl)cc2Cl)cc(N)c1Cl [Compound 13, Methyl 4-amino-3-chloro-6-(2,4-dichlorophenyl)pyridine-2-carboxylate]
pest or weed control at 560 ppm [1, 9]: 100%
pest or weed control at 560 ppm [2, 10]: 100%
pest or weed control at 560 ppm [3, 11]: 90%
pest or weed control at 560 ppm [4, 12]: 100%
pest or weed control at 250 ppm ([5]; Table 1, rate 250 ppm): 100%
pest or weed control at 250 ppm ([6]; Table 1, rate 250 ppm): 100%
pest or weed control at 250 ppm ([7]; Table 1, rate 250 ppm): 70%
pest or weed control at 250 ppm [8, 13]: 80%

Structure (SMILES): Cc1ccc(-c2cc(-n3cccc3)c(Cl)c(C(=O)O)n2)cc1 [Compound 180, 3-chloro-6-(4-methylphenyl)-4-(N-pyrolyl)pyridine-2-carboxylic acid]
Pre-emergent % control SETFA ([1]; rate 560 ppm): 100%
Pre-emergent % control CHEAL [2, 14]: 100%
Pre-emergent % control DIGSA ([3]; rate 560 ppm): 95%
Pre-emergent % control AMARE ([4]; rate 560 ppm): 100%
Post-emergent % control CHEAL ([5]; Table 1, rate 250 ppm): 100%
Post-emergent % control XANST ([6]; Table 1, rate 250 ppm): 80%
Post-emergent % control ECHCG ([7]; Table 1, rate 250 ppm): 70%
Post-emergent % control CYPES ([8]; Table 1, rate 250 ppm): 30%

melting point: 107 to 109 °C
Structure (SMILES): COC(=O)c1nc(-c2ccc(Cl)cc2F)cc(N)c1Cl [Compound 59, Methyl 4-amino-3-chloro-6-(4-chloro-2-fluorophenyl)pyridine-2-carboxylate]
pest or weed control at 280 ppm ([1]; Setaria faberi, pre-emergence, 504 h, rate 280 ppm, read-out: Pre-emergent % control SETFA): 100%
pest or weed control at 280 ppm ([2]; Chenopodium album, pre-emergence, 504 h, rate 280 ppm, read-out: Pre-emergent % control CHEAL): 100%
pest or weed control at 280 ppm ([3]; Digitaria sanguinalis, pre-emergence, 504 h, rate 280 ppm, read-out: Pre-emergent % control DIGSA): 100%
pest or weed control at 280 ppm ([4]; Amaranthus retroflexus, pre-emergence, 504 h, rate 280 ppm, read-out: Pre-emergent % control AMARE): 100%
pest or weed control at 500 ppm ([5]; Table 1): 100%
pest or weed control at 500 ppm ([6]; Table 1): 100%
pest or weed control at 500 ppm ([7]; Table 1): 80%

Structure (SMILES): Nc1c(F)c(-c2ccc(Cl)cc2)nc(C(=O)O)c1Cl [Compound 173, 4-Amino-3-chloro-5-fluoro-6-(4-chlorophenyl)pyridine-2-carboxylic acid]
pest or weed control at 560 ppm [1, 9]: 100%
pest or weed control at 560 ppm [2, 10]: 100%
pest or weed control at 560 ppm [3, 11]: 100%
pest or weed control at 560 ppm [4, 12]: 100%
pest or weed control at 500 ppm ([5]; Table 1): 100%
pest or weed control at 500 ppm ([6]; Table 1): 100%
pest or weed control at 500 ppm ([7]; Table 1): 100%
pest or weed control at 500 ppm ([8]; Cyperus, post-emergence, 336 h, Table 1, rate 500 ppm, read-out: Post-emergent % control CYPES): 100%

Structure (SMILES): COC(=O)c1nc(-c2ccc(C)cc2)cc(-n2cccc2)c1Cl [Compound 89, Methyl 4-N-pyrolyl-3-chloro-6-(4-methylphenyl)pyridine-2-carboxylate]
Pre-emergent % control SETFA ([1]; rate 560 ppm): 85%
Pre-emergent % control CHEAL [2, 14]: 100%
Pre-emergent % control DIGSA ([3]; rate 560 ppm): 90%
Pre-emergent % control AMARE ([4]; rate 560 ppm): 100%
Post-emergent % control CHEAL ([5]; Table 1, rate 250 ppm): 100%
Post-emergent % control XANST ([6]; Table 1, rate 250 ppm): 100%
Post-emergent % control ECHCG ([7]; Table 1, rate 250 ppm): 90%
Post-emergent % control CYPES ([8]; Table 1, rate 250 ppm): 50%

melting point: 119 °C
Structure (SMILES): CCc1ccc(-c2cc(N)c(Cl)c(C(=O)OC)n2)cc1 [Compound 30, Methyl 4-amino-3-chloro-6-(4-ethylphenyl)pyridine-2-carboxylate]
pest or weed control at 560 ppm [1, 9]: 70%
pest or weed control at 560 ppm [2, 10]: 90%
pest or weed control at 560 ppm [3, 11]: 100%
pest or weed control at 560 ppm [4, 12]: 100%

Structure (SMILES): Nc1c(F)c(-c2ccc(C(F)(F)F)cc2)nc(C(=O)O)c1Cl [Compound 172, 4-Amino-3-chloro-5-fluoro-6-(4-trifluorophenyl)pyridine-2-carboxylic acid]
Pre-emergent % control SETFA ([1]; rate 140 ppm): 90%
Pre-emergent % control CHEAL ([2]; rate 140 ppm): 90%
Pre-emergent % control DIGSA ([3]; rate 140 ppm): 95%
Pre-emergent % control AMARE ([4]; rate 140 ppm): 95%
Post-emergent % control CHEAL ([5]; Table 1, rate 125 ppm): 90%
Post-emergent % control XANST ([6]; Table 1, rate 125 ppm): 100%
Post-emergent % control ECHCG ([7]; Table 1, rate 125 ppm): 90%
Post-emergent % control CYPES ([8]; Table 1, rate 125 ppm): 90%
